From ChEMBL document CHEMBL2424533, “Design and regioselective synthesis of trifluoromethylquinolone derivatives as potent antimicrobial agents” (2013)
≈ marks a conversion by molar mass, not a printed value. Calls of active or inactive are those of the source. The calls are words filed in the database; no cut-off is given here.

Experiments:
[1] = test system: Salmonella typhimurium; experiment: Antimicrobial activity against Salmonella typhimurium MTCC 3732 at 50 ug/mL after 12 hrs by well diffusion method; assay type: functional, Salmonella enterica subsp. enterica serovar Typhimurium; conditions: for zone of inhibition at 50 µg/mL: Salmonella enterica, MTCC 3732, 12 h, read-out: DIZ
[2] = test system: Staphylococcus aureus; experiment: microbe, parasite or virus in culture; conditions: MTCC 3160, 12 h, read-out: DIZ
Description: (§1) Antimicrobial activity against Staphylococcus aureus MTCC 3160 at 50 ug/mL after 12 hrs by well diffusion method

[3] = test system: Mycolicibacterium smegmatis; experiment: Antimicrobial activity against Mycobacterium smegmatis MTCC 943 after 12 hrs by well diffusion method; assay type: functional; conditions: MTCC 943, 12 h
[4] = test system: Staphylococcus aureus; experiment: Antimicrobial activity against Staphylococcus aureus MTCC 3160 after 12 hrs by well diffusion method; assay type: functional; conditions: MTCC 3160, 12 h
[5] = test system: Pseudomonas aeruginosa; experiment: Antimicrobial activity against Pseudomonas aeruginosa MTCC 4673 at 50 ug/mL after 12 hrs by well diffusion method; assay type: functional; conditions: MTCC 4673, 12 h, read-out: DIZ
[6] = test system: Mycolicibacterium smegmatis; experiment: Antimicrobial activity against Mycobacterium smegmatis MTCC 943 at 100 ug/mL after 12 hrs by well diffusion method; assay type: functional; conditions: for zone of inhibition at 100 µg/mL: MTCC 943, 12 h, read-out: DIZ
[7] = test system: Salmonella typhimurium; experiment: Antimicrobial activity against Salmonella typhimurium MTCC 3732 after 12 hrs by well diffusion method; assay type: functional, Salmonella enterica subsp. enterica serovar Typhimurium; conditions: Salmonella enterica, MTCC 3732, 12 h
[8] = test system: Pseudomonas aeruginosa; experiment: Antimicrobial activity against Pseudomonas aeruginosa MTCC 4673 at 100 ug/mL after 12 hrs by well diffusion method; assay type: functional; conditions: MTCC 4673, 12 h, read-out: DIZ
[9] = test system: Staphylococcus aureus; experiment: Antimicrobial activity against Staphylococcus aureus MTCC 3160 at 100 ug/mL after 12 hrs by well diffusion method; assay type: functional; conditions: for zone of inhibition at 100 µg/mL: MTCC 3160, 12 h, read-out: DIZ
[10] = test system: Mycolicibacterium smegmatis; experiment: Antimicrobial activity against Mycobacterium smegmatis MTCC 943 at 50 ug/mL after 12 hrs by well diffusion method; assay type: functional; conditions: for zone of inhibition at 50 µg/mL: MTCC 943, 12 h, read-out: DIZ
[11] = test system: Salmonella typhimurium; experiment: Antimicrobial activity against Salmonella typhimurium MTCC 3732 at 100 ug/mL after 12 hrs by well diffusion method; assay type: functional, Salmonella enterica subsp. enterica serovar Typhimurium; conditions: for zone of inhibition at 100 µg/mL: Salmonella enterica, MTCC 3732, 12 h, read-out: DIZ
[12] = test system: Pseudomonas aeruginosa; experiment: Antimicrobial activity against Pseudomonas aeruginosa MTCC 4673 after 12 hrs by well diffusion method; assay type: functional; conditions: MTCC 4673, 12 h
[13] = test system: Candida albicans; experiment: Antimicrobial activity against Candida albicans MTCC 183 at 50 ug/mL after 12 hrs by well diffusion method; assay type: functional
[14] = test system: Penicillium chrysogenum; experiment: Antimicrobial activity against Penicillium chrysogenum MTCC 6795 at 50 to 100 ug/mL after 48 hrs by well diffusion method; assay type: functional, organism-based
[15] = test system: Staphylococcus aureus; conditions: MTCC 3160, 50 ug/mL
Description: as §1

[16] = test system: Candida albicans; experiment: Antimicrobial activity against Candida albicans MTCC 183 after 12 hrs by well diffusion method; assay type: functional; conditions: MTCC 183, 12 h
[17] = test system: Candida albicans; experiment: Antimicrobial activity against Candida albicans MTCC 183 at 100 ug/mL after 12 hrs by well diffusion method; assay type: functional
[18] = Salmonella enterica subsp. enterica serovar Typhimurium

## O=C(O)c1cn(C2CC2)c2cc(N3CCNCC3)c(F)cc2c1=O [CIPROFLOXACIN]
[1]
  zone of inhibition at 50 µg/mL: 37 mm
[2]
  zone of inhibition at 50 µg/mL: 13 mm
[3]
  MIC: < 5 µg/mL
[4]
  MIC: < 5 µg/mL
[5]
  zone of inhibition at 50 µg/mL: 26.6 mm
[6]
  zone of inhibition at 100 µg/mL: 30 mm
[7]
  MIC: < 5 µg/mL
[8]
  zone of inhibition at 100 µg/mL: 30 mm
[9]
  zone of inhibition at 100 µg/mL: 13 mm
[10]
  zone of inhibition at 50 µg/mL: 29 mm
[11]
  zone of inhibition at 100 µg/mL: 37 mm
[12]
  MIC: < 5 µg/mL

## N#Cc1ccc(Cn2cc(C(=O)NN)c(=O)c3ccc(C(F)(F)F)cc32)cc1
[1]; [18]
  diameter of the inhibition zone (DIZ): inactive
[3]
  MIC: 25 µg/mL (≈ 64.7 µM)
[4]
  MIC: > 100 µg/mL
[13]
  diameter of the inhibition zone (DIZ): inactive
[14]
  Activity: inactive
[5]
  zone of inhibition at 50 µg/mL: 8 mm
[15]
  DIZ: inactive
[6]
  zone of inhibition at 100 µg/mL: 8 mm
[7]
  MIC: > 100 µg/mL
[16]
  MIC: > 100 µg/mL
[8]
  zone of inhibition at 100 µg/mL: 8 mm
[9]
  diameter of the inhibition zone (DIZ): inactive
[17]
  diameter of the inhibition zone (DIZ): inactive
[10]
  zone of inhibition at 50 µg/mL: 8 mm
[11]; [18]
  diameter of the inhibition zone (DIZ): inactive
[12]
  MIC: 25 µg/mL (≈ 64.7 µM)

## C#CCn1cc(C(=O)NN)c(=O)c2ccc(C(F)(F)F)cc21
[1]
  zone of inhibition at 50 µg/mL: 7.6 mm
[3]
  MIC: 25 µg/mL (≈ 80.8 µM)
[4]
  MIC: 100 µg/mL (≈ 323 µM)
[13]
  diameter of the inhibition zone (DIZ): inactive
[14]
  Activity: inactive
[5]
  zone of inhibition at 50 µg/mL: 8 mm
[15]
  DIZ: inactive
[6]
  zone of inhibition at 100 µg/mL: 8 mm
[7]
  MIC: 25 µg/mL (≈ 80.8 µM)
[16]
  MIC: > 100 µg/mL
[8]
  zone of inhibition at 100 µg/mL: 8 mm
[9]
  diameter of the inhibition zone (DIZ): inactive
[17]
  diameter of the inhibition zone (DIZ): inactive
[10]
  zone of inhibition at 50 µg/mL: 8 mm
[11]
  zone of inhibition at 100 µg/mL: 8 mm
[12]
  MIC: 25 µg/mL (≈ 80.8 µM)

## NNC(=O)c1cn(Cc2ccc(Cl)cc2Cl)c2c(C(F)(F)F)cccc2c1=O
[1]
  zone of inhibition at 50 µg/mL: 11.3 mm
[3]
  MIC: > 100 µg/mL
[4]
  MIC: 100 µg/mL (≈ 232 µM)
[13]
  diameter of the inhibition zone (DIZ): inactive
[14]
  Activity: inactive
[5]
  zone of inhibition at 50 µg/mL: 8 mm
[15]
  DIZ: inactive
[6]
  diameter of the inhibition zone (DIZ): inactive
[7]
  MIC: 25 µg/mL (≈ 58.1 µM)
[16]
  MIC: > 100 µg/mL
[8]
  zone of inhibition at 100 µg/mL: 8 mm
[9]
  zone of inhibition at 100 µg/mL: 9 mm
[17]
  diameter of the inhibition zone (DIZ): inactive
[10]
  diameter of the inhibition zone (DIZ): inactive
[11]
  zone of inhibition at 100 µg/mL: 12 mm
[12]
  MIC: 25 µg/mL (≈ 58.1 µM)
